ChEMBL document CHEMBL4024779, “Novel Terminal Bipheny-Based Diapophytoene Desaturases (CrtN) Inhibitors as Anti-MRSA/VISR/LRSA Agents with Reduced hERG Activity” (J Med Chem, 2018)
In brackets after ≈: the same amount, converted by molar mass.

How the values were obtained:
[1] = molecular target: T1, 4,4'-diapophytoene desaturase (4,4'-diaponeurosporene-forming) (Staphylococcus aureus (strain Newman), UniProt O07855); test: Inhibition of CrtN in Staphylococcus aureus Newman assessed as reduction in staphyloxanthin levels after 48 hrs by spectrophotometric method-based pigment inhibition assay; set-up: species or system Staphylococcus aureus subsp. aureus str. Newman
T1 sequence (O07855 whole entry): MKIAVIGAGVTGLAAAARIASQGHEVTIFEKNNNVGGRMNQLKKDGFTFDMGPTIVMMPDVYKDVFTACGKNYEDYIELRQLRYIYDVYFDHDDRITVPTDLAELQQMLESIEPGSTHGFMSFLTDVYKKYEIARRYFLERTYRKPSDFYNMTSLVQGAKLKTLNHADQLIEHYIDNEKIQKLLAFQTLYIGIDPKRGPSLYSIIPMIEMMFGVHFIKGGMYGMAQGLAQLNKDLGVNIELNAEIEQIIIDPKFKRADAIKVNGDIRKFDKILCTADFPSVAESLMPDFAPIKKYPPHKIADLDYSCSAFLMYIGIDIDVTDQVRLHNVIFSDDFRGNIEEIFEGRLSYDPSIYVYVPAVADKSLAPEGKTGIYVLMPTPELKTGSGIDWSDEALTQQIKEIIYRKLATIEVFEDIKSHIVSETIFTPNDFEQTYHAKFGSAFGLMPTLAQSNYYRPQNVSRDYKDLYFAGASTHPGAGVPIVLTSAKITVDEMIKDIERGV

[2] = Cytotoxicity against HEK293 cells after 43 hrs by Alamar blue dye-based fluorescence assay; format: cell-based; conditions: human
HepG2 = test: Cytotoxicity against human HepG2 cells after 43 hrs by Alamar blue dye-based fluorescence assay; format: cell-based; conditions: HepG2, 43 h
Trichophyton rubrum = test: In vitro antifungal activity against Trichophyton rubrum after 7 days by serial dilution method; format: functional; conditions: 168 h
Nannizzia gypsea = test: In vitro antifungal activity against Microsporum gypseum after 7 days by serial dilution method; format: functional; conditions: 168 h
Trichophyton verrucosum = test: In vitro antifungal activity against Trichophyton verrucosum after 7 days by serial dilution method; format: functional; conditions: 168 h
[3] = tested on: Trichophyton mentagrophytes; test: In vitro antifungal activity against Trichophyton mentagrophytes after 7 days by serial dilution method; format: functional; conditions: 168 h

SMILES	IC50 [1] [nM]	also measured
CN(C/C=C/c1ccco1)Cc1cccc2cc[nH]c12	> 1000	–
CN(C/C=C/c1ccc(F)cc1)Cc1cccc2cc[nH]c12	> 1000	–
FC(F)(F)c1ccc(/C=C/CNCC2=COC3C=CC=CC23)cc1 (stereo not given)	> 1000	–
CN(C/C=C/c1ccc(Br)cc1)Cc1coc2ccccc12	2.5	CC50 at 43 h [2]: 41900 nM; IC50 (HepG2): 33000 nM
CN(C/C=C/c1ccccc1[N+](=O)[O-])Cc1coc2ccccc12	74.1	–
CN(C/C=C/c1ccco1)Cc1coc2ccccc12	> 1000	–
CN(C/C=C/c1ccc(C(F)(F)F)cc1)Cc1cc2ccccc2[nH]1	> 1000	–
CN(C/C=C/c1ccc(C(F)(F)F)cc1)Cc1ccc2[nH]ccc2c1	62.8	–
CN(C/C=C/C1CCCC1)Cc1cccc2cc[nH]c12	> 1000	–
COc1cccc(/C=C/CN(C)Cc2cccc3cc[nH]c23)c1	> 1000	–
CN(C/C=C/c1cccc2ccccc12)Cc1cccc2cc[nH]c12	> 1000	–
CN(C/C=C/c1cccc(C(F)(F)F)c1)Cc1coc2ccccc12	> 1000	–
CN(C/C=C/c1ccc(C(F)(F)F)cc1)Cc1cccc2[nH]ccc12	89.6	–
C/C(=C\c1ccc(-c2ccccc2)cc1)CN(C)Cc1coc2ccccc12	> 1000	–
CN(C/C=C/C1CCCC1)Cc1coc2ccccc12	397	–
CN(C/C=C/c1ccc(C(C)(C)C)cc1)Cc1cccc2cc[nH]c12	700	–
CN(C/C=C/c1ccc(C(F)(F)F)c(F)c1)Cc1cccc2cc[nH]c12	> 1000	–
CN(C/C=C/c1ccc(C#N)cc1)Cc1cccc2cc[nH]c12	785	–
CN(C/C=C/c1ccc(C(F)(F)F)cc1)Cc1cccc2cc[nH]c12	50.2	–
CN(C/C=C/c1ccc([N+](=O)[O-])cc1)Cc1cccc2cc[nH]c12	> 1000	–
CN(CC#Cc1ccc(-c2ccccc2)cc1)Cc1cccc2cc[nH]c12	102	–
CN(C/C=C/c1ccc(Br)cc1)Cc1cccc2cc[nH]c12	83.8	–
CN(C/C=C/c1ccc(C(F)F)cc1)Cc1coc2ccccc12	6.4	–
C/C=C/CN(C)Cc1coc2ccccc12	91.3	–
CN(C/C=C/c1ccc(C(F)(F)F)cc1)Cc1c[nH]c2ccccc12	> 1000	–

SMILES	IC50 [1] [nM]	also measured
CN(C/C=C/c1ccc(C(F)(F)F)cc1F)Cc1coc2ccccc12	9.2	–
CN(C/C=C/c1ccccc1[N+](=O)[O-])Cc1cccc2cc[nH]c12	> 1000	–
COc1ccc(/C=C/CN(C)Cc2coc3ccccc23)cc1F	> 1000	–
OC(Cn1cncn1)(Cn1cncn1)c1ccc(F)cc1F [FLUCONAZOLE]	–	MIC80 (Trichophyton rubrum): 1 µg/mL (≈ 3.27 µM); MIC80 (Nannizzia gypsea): 8 µg/mL (≈ 26.1 µM); MIC80 (Trichophyton verrucosum): 2 µg/mL (≈ 6.53 µM); MIC80 [3]: 2 µg/mL (≈ 6.53 µM)
CN(C/C=C/c1cccc(C(F)(F)F)c1)Cc1cccc2cc[nH]c12	> 1000	–
C[C@@H](c1ncncc1F)[C@](O)(Cn1cncn1)c1ccc(F)cc1F [VORICONAZOLE]	–	MIC80 (Trichophyton rubrum): 0.0312 µg/mL (≈ 0.0895 µM); MIC80 (Nannizzia gypsea): 0.25 µg/mL (≈ 0.716 µM); MIC80 (Trichophyton verrucosum): 0.0312 µg/mL (≈ 0.0895 µM); MIC80 [3]: 0.0312 µg/mL (≈ 0.0895 µM)
CN(C/C=C/c1ccc(C#N)cc1)Cc1coc2ccccc12	80.1	–
CN(CCCc1ccc(-c2ccccc2)cc1)Cc1cccc2cc[nH]c12	> 1000	–
CN(C/C=C/c1cccc(F)c1)Cc1coc2ccccc12	> 1000	–
CN(C/C=C/c1ccc(Cl)cc1)Cc1cccc2cc[nH]c12	143	–
CN(C/C=C/c1cccs1)Cc1coc2ccccc12	> 1000	–
CN(C/C=C/C=C/c1ccc(-c2ccccc2)cc1)Cc1coc2ccccc12	> 1000	–
CCN(C/C=C/c1ccc(C(F)(F)F)cc1)Cc1cccc2cc[nH]c12	118	–
CN(C/C=C/c1ccc(C(F)(F)F)c(F)c1)Cc1coc2ccccc12	> 1000	–
CN(C/C=C/c1ccc2ccccc2c1)Cc1coc2ccccc12	6.4	–
CC(=O)N1CCN(c2ccc(OCC3COC(Cn4ccnc4)(c4ccc(Cl)cc4Cl)O3)cc2)CC1 (stereo not given) [KETOCONAZOLE]	–	MIC80 (Trichophyton rubrum): 0.5 µg/mL (≈ 0.941 µM); MIC80 (Nannizzia gypsea): 2 µg/mL (≈ 3.76 µM); MIC80 (Trichophyton verrucosum): 0.0625 µg/mL (≈ 0.118 µM); MIC80 [3]: 0.0625 µg/mL (≈ 0.118 µM)
CN(C/C=C/c1ccc(C(F)(F)F)cc1)Cc1cc2ccccc2s1	102	–
CCOc1ccc(/C=C/CN(C)Cc2cccc3cc[nH]c23)cc1	64.8	–
CN(C/C=C/c1ccc(C(F)(F)F)cc1)Cc1csc2ccccc12	> 1000	–
CN(CC#Cc1ccc(-c2ccccc2)cc1)Cc1coc2ccccc12	> 1000	–
CN(C/C=C/c1ccccc1F)Cc1coc2ccccc12	> 1000	–
CN(C/C=C/c1ccccc1Cl)Cc1coc2ccccc12	360	–
CC(C)N(C/C=C/c1ccc(C(F)(F)F)cc1)Cc1cccc2cc[nH]c12	> 1000	–
COc1cccc(/C=C/CN(C)Cc2coc3ccccc23)c1	> 1000	–
